Reference: patent US20250332212A1, “METHOD FOR TREATING OR PREVENTING ALOPECIA” (Suzhou Mingren Pharmaceutical Biotechnology Co., Ltd., priority 2024, published 2025)
Square brackets hold non-standard residues; d marks the D form. Ends that are not written are not given here. pS = N[C@@H](COP(=O)(O)O)C(=O)O

Legend:
[1] = system: SP1, Wnt10a, Wnt10b and β-catenin; experiment: Immunoblotting of SP1 and downstream molecules in skin, Animal model III; format: in vivo, mouse; conditions: 1% JP1
Description: (§1) 4.1) Protein extraction: 70 mg of skin tissue was placed in a 1.5 mL centrifuge tube, and 500 μL of tissue lysate RIPA containing protease inhibitor and phosphatase inhibitor was added. The tissue was placed on an ice box, pulverized by a tissue grinder, and then ultrasonically crushed to obtain a tissue suspension, which was then placed in a rotary windmill at 4° C. to be lysed for 2 h. The centrifuge was set at 12,000×g, 4° C., centrifuged for 15 min, and the supernatant was collected as the total protein.
(§2) 5.1) Heating of protein samples: the total protein content of each tissue was 50 μg; calculate the volume of a corresponding protein sample, make up the volume with saline to 16 μL, then add 4 μL of 5×SDS sampling buffer, heat at 100° C. for 5 min, and then cool at room temperature and store at −20° C.
(§3) 5.7) Primary antibody incubation: the cut protein bands were placed into the corresponding primary antibody and incubated at 4° C. on a shaker overnight, washed with TBST 3 times for 10 min/time.

p-c-Raf = experiment: Immunoblotting of p-c-Raf in skin tissue; format: in vivo, mouse
Description: as §1, §2, §3

p-ERK = experiment: Immunoblotting of p-ERK in skin tissue; format: in vivo, mouse; conditions: P<0.05, dose-effect relationship
Description: as §1, §2, §3

[2] = mouse, in vivo
Description: (§6) In this Example, to elucidate the mechanism of JP1 penetrating the skin and acting on the hair follicle, a 14-day AGA modeling was performed according to the model design strategy of Example 1 above. Thereafter, a 1% FITC-JP1 solution was applied to the dorsal depilated area of the mice in a light-avoidance environment. Five time points were set at 0.5, 1, 2, 4 and 8 h for observation. The fresh skin tissue was made into frozen sections, and the penetration pathway of JP1 in the skin tissue and the amount of aggregation in the hair follicles were observed under an inverted fluorescence microscope.
(§7) 15 C57BL/6J male mice were dorsally depilated after two weeks of continuous TP injection. A 1% FITC-JP1 solution was applied locally to the depilated area of the mice on the 1st day after depilation, no light, in five groups of 0.5 h, 1 h, 2 h, 4 h and 8 h (n=3).
(§8) The back skin was removed at the corresponding time points and fixed in 4% paraformaldehyde. After 48 h of fixation, the skin tissue was successively dehydrated in 20% and 30% sucrose solution for 2 days each. After gradient dehydration, sections (20 μm) were made using a frozen microtome. Zeiss inverted fluorescence microscope was used to photograph the fluorescent sections.

Wnt10a = Wnt10a expression in skin tissue (qPCR, Western blotting); format: in vivo, mouse
Description: (§4) To illustrate the regulation of JP1 on the upstream Wnt ligand of β-catenin, this example intersected classical signaling pathway-related Wnt ligands and AGA-related Wnt ligands, and screened out the related Wnt ligands, including Wnt1, Wnt3a, Wnt7b, Wnt10a, and Wnt10b. In this example, qPCR was used to detect the mRNA expression of these Wnt molecules in the skin tissue of the mouse model in Example 6.
as §1
as §2, with “−20° C. […]” for “−20° C.”
(§5) 7.3) Relative mRNA expression levels of genes were calculated by the […] relative quantification method using GAPDH as an internal reference.

Wnt10b = Wnt10b expression in skin tissue (qPCR, Western blotting); format: in vivo, mouse
Description: as §4, §1
as §2, with “−20° C. […]” for “−20° C.”
as §5

[3] = JP1 stability experiment in skin-coating solvent (HPLC); format: physicochemical; conditions: 14 days
Description: This example further explored the stability of JP1 in the skin-coating solvent. In this example, the solvent group and JP1 group were designed, and the content and molecular weight of JP1 in the skin-coating solvent were detected using high performance liquid chromatography on days 1, 3, 7, and 14, respectively, after the solution was formulated for evaluation. The prepared solutions were placed in a refrigerator at 4° C. The details of the experiments are shown in “II. JP1 Stability Experiments” of “Experimental Methods” below.
The stability of JP1 dissolved in a skin-coating solvent was tested at different time points. JP1 was prepared with the skin-coating solvent, and a solvent control group and a 10 mM JP1 group were set up. The prepared solution was stored in a refrigerator at 4° C. The five time points of 0, 1, 3, 7 and 14 days were detected by high performance liquid chromatography (HPLC), and the standard curve was plotted with the peak area as the vertical coordinate and the concentration of JP1 as the horizontal coordinate.

[4] = JP1 permeability experiment (FITC-JP1 applied to depilated skin); conditions: 1% FITC-JP1 solution applied to dorsal depilated area
Description: as §6, §7, §8

p-MEK = experiment: Immunoblotting of p-MEK in skin tissue; format: in vivo, mouse; conditions: P<0.05, dose-effect relationship
Description: as §1, §2, §3

integrin αv = experiment: Integrin αv expression in skin tissue (qPCR, immunoblotting, immunofluorescence); format: in vivo, mouse
From the text: In this example, the mRNA expression levels of RGD-targeting molecules in the skin tissues of three groups of mice, namely, the AGA model control group, the model group and the JP1-treated group, were further examined.
To verify whether JP1 targeted integrin molecules are localized in hair follicles in the skin tissue, this example detected the expression levels, tissue localization, and distribution of integrin αv and integrin β1 in the skin tissue of the mouse model in Example 6 using immunofluorescence staining.
as §1, §2
7.1) Dilute the specific gene amplification primers to 10 µM in ddH2O, prepare the qPCR reaction system according to the instructions in the kit and add them sequentially into a 384-well plate.
as §5
9.5) Primary antibody incubation: the tissue was circled by the histochemical pen, about 50 μL of primary antibody was added dropwise to the tissue, and incubated in a wet box overnight at 4° C., washed 3 times with PBS.

[5] = Western blotting, dose-dependent

With “FPGSDRF-RGD (FPG[pS]DRFRGD) [JP1, amino acid S is phosphorylated; JWA peptide]” the “expression levels of key molecules (SP1, Wnt10a, Wnt10b, β-catenin), day 4” value [1] was “did not change significantly”, the “protein expression levels of four molecules (SP1, Wnt10a, Wnt10b, β-catenin), day 8” value [1] was “increased significantly” and the p-c-Raf protein level (p-c-Raf) was “not significantly altered”. The p-ERK expression level (p-ERK) was “elevated”, the “penetration into skin and follicle tissue” value [2] was “able to penetrate into the skin and enter into the follicle tissue in a targeted manner” and the Wnt10a protein expression (Wnt10a; [5]) was “significantly up-regulated”. For the same substance, the “Wnt10a mRNA expression” value (Wnt10a; qPCR, P<0.05) was “elevated with a dose-effect relationship”, the Wnt10b protein expression (Wnt10b; [5]) was “significantly up-regulated” and the “Wnt10b mRNA expression” value (Wnt10b; qPCR, P<0.05) was “elevated with a dose-effect relationship”. For the same substance, the “JP1 degradation in skin-coating solvent” value ([3]; 10 mM JP1, 4° C.) was “no JP1 degradation was detected”, the “peak area of the substance produced by degradation” value ([3]; skin-coating solvent, 4° C.) was “less than 0.5 mAU” and the “percentage of the main peak area” value ([3]; skin-coating solvent, 4° C.) was ~100%. The “fluorescence brightness at 8 h” value [4] was “obviously weakened”, the “distribution of the drug in skin at 0.5 h” value ([4]; fluorescence) was “basically covered the surface of the skin” and the p-MEK expression level (p-MEK) was “elevated”. For the same substance, the “integrin αv expression, immunofluorescence staining” value (integrin αv; each JP1 intervention group, localized in the site of hair follicles) was “elevated”, the “integrin αv protein level (TP-down-regulated)” value (integrin αv; skin tissue, immunoblotting, JP1 P<0.01) was “reversed” and the “integrin αv expression at the end of the model” value (integrin αv; skin tissue, qPCR, P<0.01) was “returned to control levels”. For the same substance, the “integrin αv mRNA expression after JP1 intervention” value (integrin αv; skin tissue, qPCR, decreased in TP model group, P<0.01) was “significantly elevated”.
